{"source": "patent US4983596A", "about": "“3-pyrrolidinylthio-1-azabicyclo[3.2.0]-hept-2-ene-2-carboxylic acid derivatives and their preparation” (Fujisawa Pharmaceutical Company, Ltd., priority 1988, dated 1991)", "system": "P. aeruginosa 26", "assay": "in vitro Antimicrobial Activity, two-fold agar-plate dilution method (MIC)", "assay_type": "cell-based", "details": "Pseudomonas aeruginosa; Test strain P. aeruginosa 26; heart infusion agar; 10^6 viable cells per ml; incubation at 37° C. for 20 hours; read-out: MIC (minimal inhibitory concentration)", "protocol": "in vitro Antimicrobial Activity\nin vitro Antimicrobial Activity was determined by the two-fold agar-plate dilution method as described blow. […]\nThe product of Example (2-1)."}
{"compound": "C[C@@H](O)[C@H]1C(=O)N2C(C(=O)O)=C(S[C@@H]3CN[C@H](COCCF)C3)[C@H](C)[C@H]12", "note": "[Example (2-1), (4R,5S,6S)-3-[(2S,4S)-2-(2-fluoroethyloxymethyl)pyrrolidin-4-yl]thio-6-[(1R)-1-hydroxyethyl]-4-methyl-7-oxo-1-azabicyclo[3.2.0]hept-2-ene-2-carboxylic acid]", "values": [{"measurement": "MIC", "result": 0.39, "unit": "mg/L"}]}
